# From patent US12331044B2, “Inhibitors of histone deacetylase useful for the treatment or prevention of HIV infection” (Merck Sharp & Dohme LLC, priority 2018, dated 2025)
# Read-outs that look alike come from different tables or passages of the source.
# Assays:
# HDAC6 = HDAC6 (Homo sapiens (Human), UniProt Q9UBN7)
# human HDAC1 = human HDAC1 (Homo sapiens (Human), UniProt Q13547)
# human HDAC2 = human HDAC2 (Homo sapiens (Human), UniProt Q92769); assay: HDAC2 inhibition assay (modified FLUOR DE LYS, 384-well); assay type: biochemical; details: […] enzyme, 40 μM substrate BML-KI104, 3 h pre-incubation; read-out: HDAC2 IC50
# [1] = target: human HDAC3/SMRT heterodimer (Homo sapiens (Human), UniProt O15379)
# KARN cells (Jurkat 2C4) = assay: cells; details: Homo sapiens
# human HDAC8 = human HDAC8 (Homo sapiens (Human), UniProt Q9BY41); assay: HDAC8 inhibition assay (modified FLUOR DE LYS, 384-well); assay type: biochemical; details: […] enzyme, 200 μM substrate BML-KI178, 3 h pre-incubation; read-out: HDAC8 IC50
# [2] = read-out: Karn EC50 nM 0.1% NHS, 0.1% normal human serum, luciferase induction, 2 μM SAHA = 100%
# [3] = read-out: Karn EC50 nM 5% NHS, 5% normal human serum, luciferase induction, 2 μM SAHA = 100%
# Chain of human HDAC2 (Q92769 whole entry): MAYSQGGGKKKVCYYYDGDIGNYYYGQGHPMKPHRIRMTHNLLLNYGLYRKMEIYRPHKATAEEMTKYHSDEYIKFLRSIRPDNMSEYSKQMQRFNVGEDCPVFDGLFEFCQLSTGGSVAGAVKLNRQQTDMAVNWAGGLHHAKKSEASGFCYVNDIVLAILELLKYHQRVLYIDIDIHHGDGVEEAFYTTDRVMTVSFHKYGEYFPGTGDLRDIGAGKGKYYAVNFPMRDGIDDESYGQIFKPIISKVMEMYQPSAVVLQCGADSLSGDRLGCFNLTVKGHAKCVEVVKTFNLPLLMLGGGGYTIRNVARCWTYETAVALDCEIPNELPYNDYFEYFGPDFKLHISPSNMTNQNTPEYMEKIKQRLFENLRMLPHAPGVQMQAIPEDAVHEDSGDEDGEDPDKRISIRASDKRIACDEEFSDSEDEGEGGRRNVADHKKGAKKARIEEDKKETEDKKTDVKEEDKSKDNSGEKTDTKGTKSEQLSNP
# Chain of human HDAC8 (Q9BY41 whole entry): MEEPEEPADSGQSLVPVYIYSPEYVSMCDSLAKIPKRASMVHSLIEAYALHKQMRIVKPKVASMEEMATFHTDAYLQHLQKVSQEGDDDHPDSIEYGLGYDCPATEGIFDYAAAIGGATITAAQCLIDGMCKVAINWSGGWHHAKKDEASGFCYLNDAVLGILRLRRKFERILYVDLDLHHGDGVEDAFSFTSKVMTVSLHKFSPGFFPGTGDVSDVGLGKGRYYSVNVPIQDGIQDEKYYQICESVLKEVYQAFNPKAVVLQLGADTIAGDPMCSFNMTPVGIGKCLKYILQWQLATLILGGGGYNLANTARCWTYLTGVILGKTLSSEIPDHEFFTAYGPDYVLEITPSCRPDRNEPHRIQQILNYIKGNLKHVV
# Chain of human HDAC3/SMRT heterodimer (O15379 whole entry): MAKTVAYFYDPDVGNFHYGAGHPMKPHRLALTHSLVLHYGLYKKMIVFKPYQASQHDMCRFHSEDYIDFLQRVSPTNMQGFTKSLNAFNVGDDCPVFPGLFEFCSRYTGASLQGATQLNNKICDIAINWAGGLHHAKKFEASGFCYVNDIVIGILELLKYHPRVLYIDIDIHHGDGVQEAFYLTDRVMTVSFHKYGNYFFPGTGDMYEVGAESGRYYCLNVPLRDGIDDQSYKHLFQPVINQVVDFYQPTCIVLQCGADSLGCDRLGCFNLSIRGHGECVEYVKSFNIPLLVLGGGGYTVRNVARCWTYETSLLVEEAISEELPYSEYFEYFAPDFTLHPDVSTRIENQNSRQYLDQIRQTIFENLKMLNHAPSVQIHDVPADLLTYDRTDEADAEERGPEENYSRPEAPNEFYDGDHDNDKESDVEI
# Chain of human HDAC3/SMRT heterodimer (Q9Y618 1-899 partner): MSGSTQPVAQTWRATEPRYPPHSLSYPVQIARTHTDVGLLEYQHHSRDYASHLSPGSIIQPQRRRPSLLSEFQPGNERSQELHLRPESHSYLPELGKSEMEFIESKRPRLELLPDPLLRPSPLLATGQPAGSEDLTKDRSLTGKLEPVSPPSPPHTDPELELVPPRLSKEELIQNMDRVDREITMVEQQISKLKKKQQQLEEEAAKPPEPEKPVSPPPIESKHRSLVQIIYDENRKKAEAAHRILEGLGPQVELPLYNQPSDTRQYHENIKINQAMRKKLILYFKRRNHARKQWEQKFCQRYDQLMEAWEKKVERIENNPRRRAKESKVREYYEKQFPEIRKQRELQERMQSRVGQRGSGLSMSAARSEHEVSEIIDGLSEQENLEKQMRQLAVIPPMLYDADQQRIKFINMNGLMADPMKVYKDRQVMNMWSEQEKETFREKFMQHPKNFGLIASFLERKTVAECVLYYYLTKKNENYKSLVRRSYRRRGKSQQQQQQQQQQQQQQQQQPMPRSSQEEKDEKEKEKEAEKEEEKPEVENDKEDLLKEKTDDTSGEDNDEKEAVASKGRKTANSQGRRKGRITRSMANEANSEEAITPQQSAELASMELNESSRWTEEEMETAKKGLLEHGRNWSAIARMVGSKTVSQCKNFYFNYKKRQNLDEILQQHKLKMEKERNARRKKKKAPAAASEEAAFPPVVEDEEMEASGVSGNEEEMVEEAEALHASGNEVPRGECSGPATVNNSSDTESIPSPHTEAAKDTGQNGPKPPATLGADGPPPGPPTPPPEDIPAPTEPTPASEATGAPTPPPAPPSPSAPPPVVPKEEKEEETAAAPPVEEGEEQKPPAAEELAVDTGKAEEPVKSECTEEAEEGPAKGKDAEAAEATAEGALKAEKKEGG
# Chain of human HDAC1 (Q13547 whole entry): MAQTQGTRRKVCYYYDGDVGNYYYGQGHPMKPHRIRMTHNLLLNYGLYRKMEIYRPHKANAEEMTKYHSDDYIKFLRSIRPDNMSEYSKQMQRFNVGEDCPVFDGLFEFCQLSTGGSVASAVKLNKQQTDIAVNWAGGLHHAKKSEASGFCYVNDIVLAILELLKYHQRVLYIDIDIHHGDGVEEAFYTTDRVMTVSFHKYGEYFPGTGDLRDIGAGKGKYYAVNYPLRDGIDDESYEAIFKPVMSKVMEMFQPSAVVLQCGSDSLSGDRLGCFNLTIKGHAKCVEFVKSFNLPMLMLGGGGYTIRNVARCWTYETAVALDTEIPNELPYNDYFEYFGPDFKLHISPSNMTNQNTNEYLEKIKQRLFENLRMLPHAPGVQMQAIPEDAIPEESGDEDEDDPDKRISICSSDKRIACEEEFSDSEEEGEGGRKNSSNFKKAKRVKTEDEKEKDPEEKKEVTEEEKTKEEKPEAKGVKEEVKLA
# Chain of HDAC6 (Q9UBN7 whole entry): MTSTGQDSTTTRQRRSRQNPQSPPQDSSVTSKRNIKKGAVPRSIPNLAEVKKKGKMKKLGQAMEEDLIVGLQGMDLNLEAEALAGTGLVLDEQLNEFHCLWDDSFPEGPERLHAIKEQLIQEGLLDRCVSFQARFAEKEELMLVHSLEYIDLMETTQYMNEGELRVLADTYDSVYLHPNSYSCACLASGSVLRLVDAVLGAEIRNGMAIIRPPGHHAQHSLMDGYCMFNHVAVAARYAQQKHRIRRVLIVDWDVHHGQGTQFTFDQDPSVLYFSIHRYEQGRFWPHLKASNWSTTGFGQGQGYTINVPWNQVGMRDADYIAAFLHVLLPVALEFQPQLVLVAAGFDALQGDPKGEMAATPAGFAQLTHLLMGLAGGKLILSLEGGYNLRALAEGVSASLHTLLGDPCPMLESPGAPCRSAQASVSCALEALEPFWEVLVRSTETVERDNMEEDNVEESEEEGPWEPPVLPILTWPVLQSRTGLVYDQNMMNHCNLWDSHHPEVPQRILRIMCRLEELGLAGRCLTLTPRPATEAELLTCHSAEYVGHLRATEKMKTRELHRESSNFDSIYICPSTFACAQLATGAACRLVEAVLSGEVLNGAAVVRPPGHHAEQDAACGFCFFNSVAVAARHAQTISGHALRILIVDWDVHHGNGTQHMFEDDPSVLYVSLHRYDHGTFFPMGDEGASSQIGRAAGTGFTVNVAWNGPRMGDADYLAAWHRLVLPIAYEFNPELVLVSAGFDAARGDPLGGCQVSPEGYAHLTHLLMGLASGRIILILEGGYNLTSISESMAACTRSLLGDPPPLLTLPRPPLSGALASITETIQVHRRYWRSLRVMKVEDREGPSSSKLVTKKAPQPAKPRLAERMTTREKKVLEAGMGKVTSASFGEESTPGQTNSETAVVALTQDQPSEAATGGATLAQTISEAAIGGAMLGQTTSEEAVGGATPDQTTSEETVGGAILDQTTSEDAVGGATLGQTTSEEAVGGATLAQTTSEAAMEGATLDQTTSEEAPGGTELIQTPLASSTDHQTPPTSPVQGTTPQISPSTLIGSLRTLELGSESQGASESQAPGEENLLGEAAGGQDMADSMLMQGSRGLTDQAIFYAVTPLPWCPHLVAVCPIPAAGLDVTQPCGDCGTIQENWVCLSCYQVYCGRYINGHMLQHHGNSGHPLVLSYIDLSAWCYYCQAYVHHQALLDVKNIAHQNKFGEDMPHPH
Compound,IC50 (HDAC6) [nM],IC50 (human HDAC1) [nM],IC50 (human HDAC2) [nM],IC50 [1] [nM],EC50 (KARN cells (Jurkat 2C4); [2]) [nM],EC50 (KARN cells (Jurkat 2C4); [3]) [nM],IC50 (human HDAC8) [nM]
"CN1CC(C(=O)N[C@@H](CCCCCC(=O)c2ncco2)c2nc(-c3ccc(F)cc3)c[nH]2)C1 [Example 1, (S)-N-(1-(4-(4-fluorophenyl)-1H-imidazol-2-yl)-7-(oxazol-2-yl)-7-oxoheptyl)-1-methylazetidine-3-carboxamide]",45000,1.1,–,–,–,–,–
COc1nc2ccccc2cc1-c1cnc([C@H](CCCCCC(=O)c2ncco2)NC(=O)CN2CCCC2)[nH]1 [Example 52],–,0.56,2.5,1.1,23,81,44
COc1nc2ccccc2cc1-c1cnc([C@H](CCCCCC(=O)c2ncco2)NC(=O)CN2CCOCC2)[nH]1 [Example 54],–,2,6.3,1.5,76,680,88
CN1CCC1C(=O)N[C@@H](CCCCCC(=O)c1ccon1)c1ncc(-c2ccccc2F)[nH]1 (stereo partly shown) [Example 60],> 900,0.13,0.41,–,4.2,9,1.7
"CCN[C@@H](CCCCCC(=O)c1ncco1)c1ncc(-c2cc3ccc(=O)n(C)c3cc2OC)[nH]1 [Example 77, (S)-6-(2-(1-(ethylamino)-7-(oxazol-2-yl)-7-oxoheptyl)-1H-imidazol-5-yl)-7-methoxy-1-methylquinolin-2(1H)-one]",> 900,–,–,–,120,120,> 900
"COc1cc2nc(C)ccc2cc1-c1cnc([C@H](CCCCCC(=O)c2ncco2)NC2CCOCC2)[nH]1 [Example 80, (S)-7-(5-(7-methoxy-2-methylquinolin-6-yl)-1H-imidazol-2-yl)-1-(oxazol-2-yl)-7-((tetrahydro-2H-pyran-4-yl)amino)heptan-1-one]",15000,–,10,5.7,550,680,3500
"N[C@@H](CCCCCC(=O)c1ccon1)c1cc(-c2ccc(F)cc2)on1 [Example 118, (S)-7-amino-7-(5-(4-fluorophenyl)isoxazol-3-yl)-1-(isoxazol-3-yl)heptan-1-one]",45000,2.4,8,–,780,1600,300
"N[C@H](CCCCCC(=O)c1ccon1)c1cc(-c2ccc(F)cc2)on1 [Example 119, (R)-7-amino-7-(5-(4-fluorophenyl)isoxazol-3-yl)-1-(isoxazol-3-yl)heptan-1-one]",45000,96,420,–,10000,–,260
"NC(CCCCCC(=O)c1ccon1)c1cnn(-c2ccc(F)cc2)c1 (stereo not shown) [Example 122, 7-amino-7-[1-(4-fluorophenyl)-1H-pyrazol-4-yl]-1-isoxazol-3-ylheptan-1-one]",–,500,–,570,–,–,–
"Cn1cc2cc(-n3ccc([C@H](N)CCCCCC(=O)c4ncco4)n3)ccc2n1 [Example 127, (7R)-7-amino-7-[1-(2-methyl-2H-indazol-5-yl)-1H-pyrazol-3-yl]-1-(1,3-oxazol-2-yl)heptan-1-one]",–,480,2600,770,–,–,–
"N[C@@H](CCCCCC(=O)c1ncco1)c1ncc(-c2cnc(C3CC3)cn2)[nH]1 [Example 131, (7S)-7-amino-7-[5-(5-cyclopropylpyrazin-2-yl)-1H-imidazol-2-yl]-1-(1,3-oxazol-2-yl)heptan-1-one]",> 900,–,23,9,1300,1500,> 900
"N[C@@H](CCCCCC(=O)c1ncco1)c1ncc(-c2cc(F)ccc2F)[nH]1 [Example 135, (7S)-7-amino-7-[5-(2,5-difluorophenyl)-1H-imidazol-2-yl]-1-(1,3-oxazol-2-yl)heptan-1-one]",> 900,–,–,–,5600,13000,> 900
"N[C@@H](CCCCCC(=O)c1ncco1)c1ncc(-c2ccc(OC(F)(F)F)cc2F)[nH]1 [Example 141, (7S)-7-amino-7-{5-[2-fluoro-4-(trifluoromethoxy)phenyl]-1H-imidazol-2-yl}-1-(1,3-oxazol-2-yl)heptan-1-one]",> 900,–,–,–,2400,3500,> 900
"COc1nc2ccccc2cc1-c1cnc([C@H](CCCCCC(=O)c2ncco2)NC(=O)c2ccc(OC(F)F)nc2)[nH]1 [Example 146, 6-(difluoromethoxy)-N-[(1S)-1-[5-(2-methoxyquinolin-3-yl)-1H-imidazol-2-yl]-7-(1,3-oxazol-2-yl)-7-oxoheptyl]pyridine-3-carboxamide]",–,5.3,16,2.3,130,440,96
"COc1nc2ccccc2cc1-c1cnc([C@H](CCCCCC(=O)c2ncco2)NC(=O)C2(c3ccncc3)CC2)[nH]1 [Example 151, N-[(1S)-1-[5-(2-methoxyquinolin-3-yl)-1H-imidazol-2-yl]-7-(1,3-oxazol-2-yl)-7-oxoheptyl]-1-pyridin-4-ylcyclopropanecarboxamide]",–,2,7.8,1.5,68,790,57
"COc1nc2ccccc2cc1-c1cnc([C@H](CCCCCC(=O)c2ncco2)NC(=O)c2nc3ccccc3o2)[nH]1 [Example 153, N-[(1S)-1-[5-(2-methoxyquinolin-3-yl)-1H-imidazol-2-yl]-7-(1,3-oxazol-2-yl)-7-oxoheptyl]-1,3-benzoxazole-2-carboxamide]",–,8.5,15,4.2,100,560,167
COc1nc2ccccc2cc1-c1cnc([C@H](CCCCCC(=O)c2ncco2)NC(=O)c2cc3n(n2)CCCC3)[nH]1 [Example 154],–,5.1,20,2,120,570,110
"COc1nc2ccccc2cc1-c1cnc([C@H](CCCCCC(=O)c2ncco2)NC(=O)[C@H]2CCC(=O)N2)[nH]1 [Example 156, N-[(1S)-1-[5-(2-methoxyquinolin-3-yl)-1H-imidazol-2-yl]-7-(1,3-oxazol-2-yl)-7-oxoheptyl]-5-oxo-D-prolinamide]",–,1.1,5.4,1.1,88,420,–
"COc1nc2ccccc2cc1-c1cnc([C@H](CCCCCC(=O)c2ncco2)NC(=O)[C@@H]2CCC(=O)N2)[nH]1 [Example 157, N-[(1S)-1-[5-(2-methoxyquinolin-3-yl)-1H-imidazol-2-yl]-7-(1,3-oxazol-2-yl)-7-oxoheptyl]-5-oxo-L-prolinamide]",–,0.64,4.1,1,77,380,–
"COc1cc2nc(C)ccc2cc1-c1cnc([C@H](CCCCCC(=O)c2ncco2)NC(=O)Cn2cccn2)[nH]1 [Example 160, N-[(1S)-1-[5-(7-methoxy-2-methylquinolin-6-yl)-1H-imidazol-2-yl]-7-(1,3-oxazol-2-yl)-7-oxoheptyl]-2-(1H-pyrazol-1-yl)acetamide]",> 900,–,5.5,0.54,48,120,71
